Results: the supplement of paper PMC12137928
Where a name gives a salt, the structure may show the parent alone.

Key:
[1] = tested on: HCT116; settings: 72 h
In short: (§1)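 HCT116 cells were plated at 250 per well in 1536-well plates and allowed 5 h to attach. CellTiter-Glo luminescence was normalized to vehicle as 0% and positive control as -100%, followed by pattern correction. Four-parameter Hill fits provided IC50 and maximal efficacy.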

[2] = tested on: HCT116; test: efficacy (maximum % inhibition of viability vs DMSO); higher = more cytotoxic; settings: 72 h
In short: as §1

Compound | IC50 cell viability ([1]; ICRF193 0 nM) [µM] | IC50 cell viability ([1]; ICRF193 200 nM) [µM] | efficacy ([2]; ICRF193 0 nM) [%] | efficacy ([2]; ICRF193 200 nM) [%]
CNCCCC1c2ccccc2C=Cc2ccccc21 [Protriptyline hydrochloride] | 29.1 | 29.1 | 68.2 | 95.4
CCCCCCCCCCCCCCCC[N+](C)(C)C [Hexadecyltrimethylammonium bromide] | 5.8 | 7.3 | 103 | 91.6
COc1cc2nccc(Oc3ccc(NC(=O)C4(C(=O)Nc5ccc(F)cc5)CC4)cc3)c2cc1OC [Cabozantinib] | 20.6 | 16.4 | 58.4 | 69.8
C[C@@H]1C[C@H]2[C@@H]3CCC4=CC(=O)C=C[C@]4(C)[C@@]3(Cl)[C@@H](O)C[C@]2(C)[C@@]1(OC(=O)c1ccco1)C(=O)CCl [Mometasone furoate] | 18.3 | 20.6 | 102 | 97.9
Cc1cnc(C(=O)N[C@H]2CCCCC/C=C\[C@@H]3C[C@@]3(C(=O)NS(=O)(=O)C3CC3)NC(=O)[C@@H]3C[C@@H](Oc4nc5ccccc5c5ccccc45)CN3C2=O)cn1 [ABT-450] | 29.1 | 18.3 | 110 | 100
CN1CCN(CCCN2c3ccccc3Sc3ccc(Cl)cc32)CC1 [Prochlorperazine dimaleate] | 25.9 | 20.6 | 89.6 | 81.1
O=C(CCCN1CCN(c2ccc(F)cc2)CC1)NC1c2ccccc2CSc2ccccc21 (stereo not given) [Monatepil] | 23.1 | 23.1 | 123 | 93.7
Nc1nc2ccc(OC(F)(F)F)cc2s1 [Riluzole] | > 45.8 | 23.1 | – | 46.2
O=C(Nc1ccc([N+](=O)[O-])cc1Cl)c1cc(Cl)ccc1O [Niclosamide] | 0.712 | 0.712 | 88.5 | 82.8
CO[C@H]1C[C@@H]2CC[C@@H](C)[C@@](O)(O2)C(=O)C(=O)N2CCCC[C@H]2C(=O)O[C@H]([C@H](C)C[C@@H]2CC[C@@H](OC(=O)C(C)(CO)CO)[C@H](OC)C2)CC(=O)[C@H](C)/C=C(\C)[C@@H](O)[C@@H](OC)C(=O)[C@H](C)C[C@H](C)/C=C/C=C/C=C/1C [Temsirolimus] | 14.2 | 15.9 | 74.5 | 79
CC1(C)CCC(C)(C)c2cc(NC(=O)c3ccc(C(=O)O)cc3)ccc21 [Tamibarotene] | 20.6 | > 45.8 | 52.7 | –
CC1=CC(=C(c2ccc(N)cc2)c2ccc(N)cc2)C=CC1=N [C.I. Basic Violet 14] | 10.3 | 5.17 | 98.1 | 92.3
CC(=O)OC[C@H]1O[C@@H]([S-])[C@H](OC(C)=O)[C@@H](OC(C)=O)[C@@H]1OC(C)=O.CCP(CC)CC.[Au+] [Auranofin] | 2.59 | 2.59 | 102 | 96.8
Cc1cncc(CN2CCC(=C3c4ccc(Cl)cc4CCc4cccnc43)CC2)c1 [Rupatadine (Fumarate)] | 18.3 | 20.6 | 56.6 | 88.3
CCOC(=O)Oc1c(OC)cc(C(=O)O[C@@H]2C[C@@H]3CN4CCc5c([nH]c6cc(OC)ccc56)[C@H]4C[C@@H]3[C@H](C(=O)OC)[C@H]2OC)cc1OC [Syrosingopine] | 29.1 | 16.4 | 112 | 101
CC/C(=C(/CC)c1ccc(O)cc1)c1ccc(O)cc1 [Diethylstilbestrol] | 18.3 | 23.1 | 52.4 | 47.5
CCCCCCCC(=O)N[C@H](CN1CCCC1)[C@H](O)c1ccc2c(c1)OCCO2 [Eliglustat (Tartrate)] | > 45.8 | 29.1 | – | 44.2
CCc1oc2ccccc2c1C(=O)c1cc(I)c(O)c(I)c1 [Benziodarone] | > 45.8 | 29.1 | – | 44.1
Cc1cc(-n2c(=O)[nH]c(=O)n(C)c2=O)ccc1Oc1ccc(SC(F)(F)F)cc1 [TOLTRAZURIL] | > 45.8 | 20.6 | – | 41.6
Nc1ncn([C@@H]2O[C@H](CO)[C@@H](O)[C@H]2O)c(=O)n1 [5-Azacitidine] | 8.2 | 8.2 | 121 | 98.6
CC(CN1c2ccccc2Sc2ccc(S(=O)(=O)N(C)C)cc21)N(C)C (stereo not given) [Fonazine] | 22.4 | 35.5 | 56 | 70.3
CC(=O)c1c(C)c2cnc(Nc3ccc(N4CCNCC4)cn3)nc2n(C2CCCC2)c1=O [Palbociclib] | 29.1 | 16.4 | 98.3 | 104
CC[C@@]1(O)C(=O)OCc2c1cc1n(c2=O)Cc2cc3c([N+](=O)[O-])cccc3nc2-1 [Rubitecan] | 0.447 | 0.0891 | 81.2 | 96.5
Cc1cc(C2=NOC(c3cc(Cl)cc(Cl)c3)(C(F)(F)F)C2)ccc1C(=O)NCC(=O)NCC(F)(F)F (stereo not given) [Fluralaner] | 18.3 | 29.1 | 96.5 | 104
Oc1ccc(CCNCCCCCCNCCc2ccccc2)cc1O [Dopexamine] | > 45.8 | 18.3 | – | 47.3

Compound | IC50 cell viability ([1]; ICRF193 0 nM) [µM] | IC50 cell viability ([1]; ICRF193 200 nM) [µM] | efficacy ([2]; ICRF193 0 nM) [%] | efficacy ([2]; ICRF193 200 nM) [%]
CCCC(=O)O[C@]1(C(=O)CCl)[C@H](C)C[C@@H]2[C@@H]3CCC4=CC(=O)C=C[C@]4(C)[C@]3(F)C(=O)C[C@@]21C [Clobetasone butyrate] | 20.6 | 14.6 | 50.4 | 40.9
CCCC[C@H](C)C[C@H](O)/C=C/[C@H]1[C@H](O)CC(=O)[C@@H]1CCCC/C=C/C(=O)O [Limaprost] | 20.6 | 16.4 | 81.4 | 77.6
CC[C@]12C=CCN3CC[C@@]4(c5cc([C@@]6(C(=O)OC)C[C@@H]7C[C@@H](C(C)(F)F)CN(Cc8c6[nH]c6ccccc86)C7)c(OC)cc5N(C)[C@H]4[C@@](O)(C(=O)OC)[C@@H]1OC(C)=O)[C@@H]32 [Vinflunine (Tartrate)] | 0.73 | > 45.8 | 60.1 | –
COc1cc2c(c(OC)c1OC)-c1ccc(OC)c(=O)cc1[C@@H](NC(C)=O)CC2 [Colchicine] | 0.0326 | 0.0326 | 74 | 69.5
CCCCC[C@H](O)/C=C/[C@H]1[C@H](O)CC(=O)[C@@H]1C/C=C\CCCC(=O)O [Prostaglandin E2] | 29.1 | 23.1 | 68.9 | 84.7
CCCCCCOc1ccc(C(=N)N(CCCC)CCCC)c2ccccc12 [Bunamidine hydrochloride] | 11.6 | 10.3 | 104 | 106
CC[C@@]1(O)C[C@H](O[C@H]2C[C@H](N(C)C)[C@H](O[C@H]3C[C@H](O)[C@H](O[C@H]4CCC(=O)[C@H](C)O4)[C@H](C)O3)[C@H](C)O2)c2c(cc3c(c2O)C(=O)c2c(O)cccc2C3=O)[C@H]1C(=O)OC [Aclarubicin] | 23.1 | 9.2 | 122 | 112
CNCCC(Oc1ccc(C(F)(F)F)cc1)c1ccccc1 (racemic) [(+/-) -Fluoxetine] | 29.1 | 18.3 | 106 | 102
C[C@H]1O[C@@H](O[C@H]2[C@@H](O)C[C@H](O[C@H]3[C@@H](O)C[C@H](O[C@H]4CC[C@@]5(C)[C@H](CC[C@@H]6[C@@H]5CC[C@]5(C)[C@@H](C7=CC(=O)OC7)CC[C@]65O)C4)O[C@@H]3C)O[C@@H]2C)C[C@H](O)[C@@H]1O [DIGITOXIN] | 0.0651 | > 45.8 | 73.1 | –
CCCCC[C@H](O)C=C[C@H]1[C@@H](O)CC(=O)[C@@H]1CCCCCCC(=O)O | 20.6 | 23.1 | 73.2 | 73.8
COc1ccc(C(C)(C)C)cc1CN[C@H]1C2CCN(CC2)[C@H]1C(c1ccccc1)c1ccccc1 [Maropitant] | 18.3 | 18.3 | 60.3 | 96
N=C(N)c1ccc(OCCCCCOc2ccc(C(=N)N)cc2)cc1 [Pentamidine isethionate] | > 45.8 | 18.3 | – | 60.4
CN1CCN(CC/C=C2/c3ccccc3Sc3ccc(S(=O)(=O)N(C)C)cc32)CC1 [THIOTHIXENE] | 20.6 | 20.6 | 112 | 126
C[C@@H]1O[C@@H](O[C@@H]2C=C3CC[C@@H]4[C@H](CC[C@]5(C)[C@@H](c6ccc(=O)oc6)CC[C@]45O)[C@@]3(C)CC2)[C@H](O)[C@H](O)[C@H]1O [Proscillaridin] | 0.0164 | 0.013 | 107 | 91.3
CCCCCCCCCCCCCCCC[N+](C)(C)CCN(Cc1ccc(OC)cc1)c1ncccn1 [Thonzonium bromide] | 18.3 | 4.61 | 120 | 89.7
O=C(OC[C@H]1O[C@@H](OC(=O)c2cc(O)c(O)c(OC(=O)c3cc(O)c(O)c(O)c3)c2)[C@H](OC(=O)c2cc(O)c(O)c(OC(=O)c3cc(O)c(O)c(O)c3)c2)[C@@H](OC(=O)c2cc(O)c(O)c(OC(=O)c3cc(O)c(O)c(O)c3)c2)[C@@H]1OC(=O)c1cc(O)c(O)c(OC(=O)c2cc(O)c(O)c(O)c2)c1)c1cc(O)c(O)c(OC(=O)c2cc(O)c(O)c(O)c2)c1 [Tannic acid] | 18.3 | 18.3 | 108 | 102
Nc1c2ccccc2nc2ccccc12 [9-Aminoacridine, monohydrochloride, monohydrate] | 23.1 | 9.2 | 103 | 90.6
c1ccc(-c2ccc(C(c3ccccc3)n3ccnc3)cc2)cc1 (stereo not given) [Bifonazole] | 25.9 | 16.4 | 75.7 | 75.2
COc1cc(C(=O)OCCCN2CCCN(CCCOC(=O)c3cc(OC)c(OC)c(OC)c3)CC2)cc(OC)c1OC [Dilazep] | > 45.8 | 29.1 | – | 51.1
Cn1cnc([N+](=O)[O-])c1Sc1ncnc2[nH]cnc12 [Azathioprine] | 2.91 | 3.66 | 77.4 | 85.9
CC[C@@H]1/C=C(\C)C[C@H](C)C[C@H](OC)[C@H]2O[C@@](O)(C(=O)C(=O)N3CCCC[C@H]3C(=O)O[C@H](/C(C)=C/[C@@H]3CC[C@H](Cl)[C@H](OC)C3)[C@H](C)[C@@H](O)CC1=O)[C@H](C)C[C@@H]2OC [Pimecrolimus] | 14.6 | 18.3 | 62.4 | 63.4
CC[C@@]1(O)C(=O)OCc2c1cc1n(c2=O)Cc2cc3c(CN(C)C)c(O)ccc3nc2-1 [Topotecan hydrochloride] | 0.73 | 0.206 | 94.2 | 102
CC[C@H](Nc1ncnc2[nH]cnc12)c1nc2cccc(F)c2c(=O)n1-c1ccccc1 [Idelalisib] | > 45.8 | 29.1 | – | 42.6
C[n+]1c2cc(N)ccc2cc2ccc(N)cc21.Nc1ccc2cc3ccc(N)cc3nc2c1 [Acriflavine hydrochloride] | 16.4 | 23.1 | 50.4 | 56.5
